Results reported in article PMC7648750, “In vitro and in vivo BNCT investigations using a carborane containing sulfonamide targeting CAIX epitopes on malignant pleural mesothelioma and breast cancer cells” (Scientific Reports, 2020).

Columns and labels:
AB22 cells = assay: MTT cell vitality assay; assay type: cell-based, mouse; details: AB22, 24 h, normoxia, Fig. 3
Protocol: (§1) The MTT assay is based on the reduction in the mitochondria of metabolically active cells by succinate dehydrogenase obtaining a precipitation of purple formazan crystal. The assay was carried out using the same protocol reported by Azzi et al[42]. Briefly, AB22, ZL34 and MCF7 cells were seeded at a density of 7 × 10^3, 5 × 10^3 and 1 × 10^4 cells per well, respectively, in a 96-well microtiter plate. After 24 h at 37 °C and 5% CO2, they were incubated with increasing concentration of CA-SF or AZ for 24 h in a condition of normoxia at 37 °C and 5% CO2 by adding stock solutions in dimethyl sulfoxide (DMSO). In all the conditions the concentration of DMSO during the cell incubation was maintained under 0.25% (v/v) in cell medium. After the incubation, the medium was removed and each well was incubated with thiazolyl blue tetrazolium bromide (Sigma) dissolved in the medium at a concentration of 0.45 mg/mL for 4 h at 37 °C and 5% CO2. Then, after medium elimination, 150 µL of DMSO were added into each well to solubilise the formazan salt crystals produced by the metabolism of live cells and the microplate was incubated at room temperature (RT) for 30 min. Finally, absorbance was measured at 570 nm using an iMark microplate reader (Biorad). Cell vitality was reported as the percentage of […] cells observed in the treated samples relative to that observed in the non-treated control cells.

ZL34 cells = assay: MTT cell vitality assay; assay type: cell-based, human; details: ZL34, 24 h, normoxia, Fig. 3
Protocol: as §1

MCF7 cells = assay: MTT cell vitality assay; assay type: cell-based, human; details: MCF7, 24 h, normoxia, Fig. 3
Protocol: as §1

[1] = clinical applications; no reference given; cited from earlier work

Compound | percentage of viable cells with increasing concentration (MTT) (AB22 cells) | percentage of viable cells with increasing concentration (MTT) (ZL34 cells) | percentage of viable cells with increasing concentration (MTT) (MCF7 cells) | boron concentration ratio between tumour and normal tissues [1]
CC(=O)Nc1nnc(S(N)(=O)=O)s1 [AZ, 5-acetamido-1,3,4-thiadiazole-2-sulfonamide, reference compound] | negligible | negligible | negligible | –
N[C@@H](Cc1ccc(B(O)O)cc1)C(=O)O [BPA, L-para-boronphenylalanine] | – | – | – | 3–5
sodium mercaptoundecaidro-closo-dodecaborate [BSH] | – | – | – | 3–5
